Laboratory results as given in publication PMC8032764 (Scientific Reports, 2021).

How the values were obtained:
[1] = tested on: Adrenergic α1 (non-selective); assay: Cerep binding; details: 10 μM; [3H]prazosin; rat cerebral cortex
Adrenergic β2 = tested on: T1, Adrenergic β2; assay: Cerep binding; design: species or system human; details: 10 μM; [3H](-)CGP 12177; hum. recomb. (CHO)
T1 construct: host or cells: CHO

Muscarinic M1 = tested on: T2, Muscarinic M1; assay: Cerep binding; design: species or system human; details: 10 μM; [3H]pirenzepine; hum. recomb. (CHO)
T2 construct: host or cells: CHO

Muscarinic M2 = tested on: T3, Muscarinic M2; assay: Cerep binding; design: species or system human; details: 10 μM; [3H]AF-DX 384; hum. recomb. (CHO)
T3 construct: host or cells: CHO

Prostanoid EP4 = tested on: T4, Prostanoid EP4; assay: Cerep binding; design: species or system human; details: 10 μM; [3H]PGE2; hum. recomb. (CHO)
T4 construct: host or cells: CHO

Serotonin 5-HT7 = tested on: T5, Serotonin 5-HT7; assay: Cerep binding; design: species or system human; details: 10 μM; [3H]LSD; hum. recomb. (CHO)
T5 construct: purchased Eurofins Cerep

Angiotensin AT1 = tested on: T6, Angiotensin AT1; assay: Cerep binding; design: species or system human; details: 10 μM; [125I][Sar1,Ile8]-AT-II; hum. recomb. (HEK-293)
T6 construct: purchased Eurofins Cerep

Endothelin ETB = tested on: T7, Endothelin ETB; assay: Cerep binding; design: species or system human; details: 10 μM; [125I]endothelin-1; hum. recomb. (CHO)
T7 construct: purchased Eurofins Cerep

Chemokine CXCR2 (IL-8B) = tested on: T8, Chemokine CXCR2 (IL-8B); assay: Cerep binding; design: species or system human; details: 10 μM; [125I]IL-8; hum. recomb. (HEK-293)
T8 construct: purchased Eurofins Cerep

Neurokinin NK2 = tested on: T9, Neurokinin NK2; assay: Cerep binding; design: species or system human; details: 10 μM; [125I]NKA; hum. recomb. (CHO)
T9 construct: purchased Eurofins Cerep

Kv channel = assay: Cerep binding; details: 10 μM; [125I]α−dendrotoxin; rat cerebral cortex
Wistar rats = assay: Pentylenetetrazole (PTZ) test; assay type: in vivo, rat
Experimental: PTZ was prepared in 0.9% saline and was administered s.c. in a volume of 1 mL/kg. The positive control FG7142, a non-selective GABAA receptor NAM, was prepared in 0.3% Tween 80 v/v saline and was administered i.p. in a volume of 1 mL/kg. […] During this period the number of rats showing tonic convulsions was noted.
FG7142 was administered at 10 mg/kg 30 min prior to PTZ. The percent of rats in each dose group showing tonic convulsions was compared to the control group by the Pearson Chi-Square test.

Plasma levels, PTZ test = assay type: in vivo, rat
Experimental: Following tonic convulsions, rats were immediately euthanized by decapitation. All other rats were euthanized by decapitation at the end of the 30 min observation period. Plasma samples were collected and frozen at − 80 °C for analysis of drug content.
(§1) The calibration range was from 1.0 to 5000 ng/mL. After protein precipitation with ethanol, the sample solution was injected onto a Gemini C18 trapping column (2 × 10 mm; Phenomenex, Torrance, CA, USA) and polar endogenous compounds and salts were rinsed off. Analytical separation was performed on an Atlantis T3 column (2.1 × 50 mm) (Waters, Milford, MA, USA), using methanol/water containing 0.1% formic acid as mobile phase. A drug analogue was used as an internal standard.

[2] = Plasma exposure in EEG study; assay type: in vivo; details: human, oral, 240 mg twice daily, mean ± SD
[3] = Pharmacokinetics, single oral dosing; assay type: in vivo, Cynomolgus macaque; details: cynomolgus monkey, plasma, 10 mg/kg oral, microsuspension, n = 3 male
Experimental: Concentrations were chosen to achieve the desired doses by administering 5 mL/kg to rats and 2.5 mL/kg to NHPs via oral gavage.
as §1

healthy male subjects = assay: Study BP25129 single-ascending dose, safety EEG; assay type: in vivo, human
Experimental: CLINICAL INFORMATION: Safety EEG data from Phase I studies in healthy volunteers
1) Study BP25129 Single-Ascending Dose (SAD) in Healthy Volunteers
Single doses of between 1.5 mg and 1250 mg were administered to groups of eight healthy male subjects (age range 18–44 years) per dose level (6 received active drug, two received placebo). All nine planned cohorts in the Part 1 SAD study were completed, and all subjects completed dosing as planned.
Food Effect (FE) Cohort: Eight subjects were enrolled, all received active drug as planned on two separate occasions, with food condition (Fed or Fasted) on each occasion determined in a randomized manner. All subjects enrolled in the FE portion of Part 1 completed the study.
EEG assessments were made in Cohorts 6, 8, 9 and FE Cohort only:
• Cohort 6: 160 mg (n dosed: 6)
• Cohort 8: 660 mg (n dosed: 6)
• Cohort 9: 1250 mg (n dosed: 6)
• Food effect Cohort: 660 mg ([…]) […]
On the day of dosing, an EEG in the resting, awake state was recorded starting about 1 hour prior to dosing and ending approximately 7 h after dosing. EEG results were recorded either as normal, normal variant or abnormal variant. If an abnormal variant measurement was recorded, then the Investigator could continue recordings as appropriate until a return to […]
participants had several EEGs and several participants had sleep assessments with EEG that were also evaluated: […]

human GABAA α5β3γ2 = human GABAA α5β3γ2 (Homo sapiens, UniProt P18507+P31644); assay: [3H]-Ro-15 4513 displacement assay; assay type: binding; design: expressed in transfected cells; host or cells: HEK293-EBNA, transient
Experimental: IC50 values were derived from the inhibition curve and Ki values were calculated as described below.

Chain of human GABAA α5β3γ2 (P31644 32-462): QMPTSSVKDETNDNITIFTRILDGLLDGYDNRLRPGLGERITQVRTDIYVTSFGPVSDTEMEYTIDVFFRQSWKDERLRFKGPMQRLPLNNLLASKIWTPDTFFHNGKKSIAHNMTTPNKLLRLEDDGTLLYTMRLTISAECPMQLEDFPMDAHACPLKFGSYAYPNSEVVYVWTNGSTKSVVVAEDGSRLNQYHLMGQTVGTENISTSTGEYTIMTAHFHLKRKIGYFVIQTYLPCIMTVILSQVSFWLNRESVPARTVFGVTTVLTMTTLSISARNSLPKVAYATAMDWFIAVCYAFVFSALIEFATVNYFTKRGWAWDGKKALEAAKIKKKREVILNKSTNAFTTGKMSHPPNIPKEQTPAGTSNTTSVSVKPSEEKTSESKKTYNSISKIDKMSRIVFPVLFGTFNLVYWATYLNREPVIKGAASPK
Chain of human GABAA α5β3γ2 (P28472 26-473 partner): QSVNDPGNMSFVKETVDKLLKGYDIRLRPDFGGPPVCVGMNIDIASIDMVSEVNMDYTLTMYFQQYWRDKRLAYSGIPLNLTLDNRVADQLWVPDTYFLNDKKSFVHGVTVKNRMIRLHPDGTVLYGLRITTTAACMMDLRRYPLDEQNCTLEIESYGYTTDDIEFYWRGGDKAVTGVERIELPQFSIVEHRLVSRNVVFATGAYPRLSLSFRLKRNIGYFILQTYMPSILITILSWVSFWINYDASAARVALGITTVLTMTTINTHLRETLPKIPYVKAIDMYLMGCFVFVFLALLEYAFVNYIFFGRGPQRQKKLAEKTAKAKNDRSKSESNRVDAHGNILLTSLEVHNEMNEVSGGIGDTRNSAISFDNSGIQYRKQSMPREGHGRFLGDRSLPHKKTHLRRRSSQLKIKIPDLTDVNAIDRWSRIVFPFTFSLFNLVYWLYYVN
Chain of human GABAA α5β3γ2 (P18507 40-475): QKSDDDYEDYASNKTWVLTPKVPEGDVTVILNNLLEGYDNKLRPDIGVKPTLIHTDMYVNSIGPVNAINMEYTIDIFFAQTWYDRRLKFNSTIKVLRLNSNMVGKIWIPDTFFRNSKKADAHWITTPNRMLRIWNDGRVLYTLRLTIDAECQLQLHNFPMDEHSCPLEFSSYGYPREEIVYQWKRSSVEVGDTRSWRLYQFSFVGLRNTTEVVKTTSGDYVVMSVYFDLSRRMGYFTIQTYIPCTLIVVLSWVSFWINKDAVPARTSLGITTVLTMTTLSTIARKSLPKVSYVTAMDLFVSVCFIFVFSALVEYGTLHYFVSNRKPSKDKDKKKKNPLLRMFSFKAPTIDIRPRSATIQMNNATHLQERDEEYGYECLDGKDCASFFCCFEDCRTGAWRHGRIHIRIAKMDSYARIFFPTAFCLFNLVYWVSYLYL

## Cc1onc(-c2ccc(F)cc2)c1COc1ccc(C(=O)N2CCS(=O)(=O)CC2)cn1 [basmisanil]
[1]
  % Inhibition: -1%
Adrenergic β2
  % Inhibition: 10%
Muscarinic M1
  % Inhibition: 6%
Muscarinic M2
  % Inhibition: 13%
Prostanoid EP4
  % Inhibition: 3%
Serotonin 5-HT7
  % Inhibition: 13%
Angiotensin AT1
  % Inhibition: 2%
Endothelin ETB
  % Inhibition: -2%
Chemokine CXCR2 (IL-8B)
  % Inhibition: -3%
Neurokinin NK2
  % Inhibition: 7%
Kv channel
  % Inhibition: -1%
Wistar rats; female rats, 30 mg/kg, 2 h prior to PTZ 70 mg/kg
  proconvulsant activity: did not exert proconvulsant activity
Wistar rats; female rats, 100 mg/kg, threshold dose of PTZ, p < 0.05
  rats exhibiting tonic convulsions: five out of eight
Wistar rats; female rats, 300 and 600 mg/kg, p < 0.05
  rats exhibiting tonic convulsions, compared with 100 mg/kg: identical effects
Wistar rats; male rats, single doses up to 100 mg/kg, 1 h prior to PTZ 55 mg/kg
  proconvulsant activity: did not exert proconvulsant activity
Plasma levels, PTZ test; female rats, 30 mg/kg
  free plasma concentration: 2452 nM
Plasma levels, PTZ test; female rats, 100 mg/kg
  free plasma concentration: 5079 nM
Plasma levels, PTZ test; male rats, 100 mg/kg
  free plasma concentration: 1622 nM
[2]; day 14, 1 h post morning dose
  concentration at 1 h: 3280 ± 888 ng/mL
[2]; day 14, 4 h post morning dose
  concentration at 4 h: 4030 ± 842 ng/mL
[3]
  bioavailability: 48%
[3]; median, read-out: Tmax (range)
  Tmax: 1.5 h
[3]; ± standard deviation
  AUC(0-t): 27500 ng·h/mL
  Cmax: 3650 ± 110 ng/mL
Healthy male subjects; single doses 1.5 mg to 1250 mg
  tolerability: well tolerated
Healthy male subjects; single doses of 160 mg, 660 mg and 1250 mg
  EEG assessments: did not reveal any findings of clinical
Human GABAA α5β3γ2
  Ki: 7.6 ± 0.3 nM
